This is an account of results in patent publication US9365576B2, “Pyrrolopyrrolidinone compounds” (Novartis AG, priority 2012, dated 2016).

pIC50: −log10 of the molar value.

Common to all, as to format: binding
Assay [1] concerns the target T1, human MDM2 protein (amino acids 2-188) (Homo sapiens (Human), UniProt Q00987). The experiment in a line: TR-FRET assay, p53-MDM2 Assay 1. The settings on record: 1.25 nM MDM2-biotinylated, 10 nM Cy5-p53 peptide. The procedure: (§1) The inhibition of p53-MDM2 and p53-MDM4 interactions is measured by time resolved fluorescence energy transfer (TR-FRET). Fluorescence energy transfer (or Foerster resonance energy transfer) describes an energy transfer between donor and acceptor fluorescent molecules. For this assay, human MDM2 protein (amino acids 2-188) and human MDM4 protein (amino acids 2-185), tagged with a C-terminal biotin moiety, are used in combination with a Europium labeled streptavidin (Perkin Elmer, Inc., Waltham, Mass., USA) serving as the donor fluorophore. The p53 derived, Cy5 labeled peptide Cy5-TFSDLWKLL (p53 aa18-26) is the energy acceptor. Upon excitation of the donor molecule at 340 nm, binding interaction between MDM2 or MDM4 and the p53 peptide induces energy transfer and enhanced response at the acceptor emission wavelength at 665 nm. Disruption of the formation of the p53-MDM2 or p53-MDM4 complex due to an inhibitor molecule binding to the p53 binding site of MDM2 or MDM4 results in increased donor emission at 620 nm. The ratiometric FRET assay readout is calculated from the raw data of the two distinct fluorescence signals measured in time resolved mode (fluorescence 665 nm/fluorescence 620 nm×1000).
(§2) After addition of 1.25 nM MDM2-biotinylated or 2.5 nM MDM4-biotinylated (internal preparations), and 0.625 nM Europium labeled streptavidin (Perkin Elmer), the solution is pre-incubated for 15 minutes at room temperature, then 10 nM Cy5-p53 peptide (internal preparation) is added before an incubation at room temperature for 15 minutes prior to reading the plate. For measurement of samples, a Victor II microplate reader (Perkin Elmer) is used with the following settings: Excitation 340 nm, Emission Donor 620 nm and Emission Acceptor 665 nm. IC50 values are calculated by curve fitting using XLfit. If not specified, reagents are purchased from Sigma-Aldrich Chemie GmBH, Buchs, Switzerland.
(§3) This assay was used to evaluate compounds displaying inhibition of p53-MDM2 interaction and p53-MDM4 interaction at IC50s of 0.005 to 50 μM (p53-MDM2 Assay 1 and p53-MDM4 Assay 1, respectively). For selected compounds displaying IC50s between […] on MDM2, a slightly modified assay is used with the following adaptations: 0.1 nM MDM2, 0.1 nM Europium labeled streptavidin and Tecan genios Pro is used as a microplate reader for the fluorescence measurements (p53-MDM2 Assay 2).

Assay [2] deals with human MDM4 protein (amino acids 2-185) (Homo sapiens (Human), UniProt O15151). The experiment in a line: TR-FRET assay, p53-MDM4 Assay 1. The settings on record: 2.5 nM MDM4-biotinylated, 10 nM Cy5-p53 peptide. The method, then:
as §1, §2, §3

Assay [3] deals with T1, human MDM2 protein (amino acids 2-188). As to the kind of experiment: TR-FRET assay, p53-MDM2 Assay 2 (modified). The conditions noted are these: TR-FRET; 0.1 nM MDM2, 0.1 nM Europium labeled streptavidin, Tecan genios Pro reader; read-out: IC50 p53-MDM2 Assay 2. Summed up: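 IC50 values were curve-fitted from the time-resolved 665/620 nm emission ratio after 340 nm excitation. The assay combined 0.625 nM europium-streptavidin donor with 1.25 nM C-terminally biotinylated MDM2 2–188 (15 min, RT), followed by 15 min with 10 nM Cy5-labeled p53 18–26 acceptor peptide.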

T1 sequence (Q00987 2-188): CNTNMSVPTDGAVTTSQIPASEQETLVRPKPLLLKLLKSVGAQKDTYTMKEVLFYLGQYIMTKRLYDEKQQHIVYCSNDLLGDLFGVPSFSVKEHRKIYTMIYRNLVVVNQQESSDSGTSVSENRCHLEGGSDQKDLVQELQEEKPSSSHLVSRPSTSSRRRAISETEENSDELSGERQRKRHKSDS
Sequence of human MDM4 protein (amino acids 2-185) (O15151 2-185): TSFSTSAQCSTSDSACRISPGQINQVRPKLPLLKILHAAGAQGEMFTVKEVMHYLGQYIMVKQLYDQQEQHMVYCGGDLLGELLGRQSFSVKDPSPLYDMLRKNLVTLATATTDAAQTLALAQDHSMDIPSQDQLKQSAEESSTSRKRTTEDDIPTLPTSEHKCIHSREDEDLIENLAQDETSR

Consider `CNC(=O)c1ccc(OC)c(-c2cc3c(n2C(C)C)[C@H](c2ccc(Cl)cc2C)N(c2cccc(Cl)c2F)C3=O)c1` [Example 7, 3-[(S)-5-(3-Chloro-2-fluoro-phenyl)-6-(4-chloro-2-methyl-phenyl)-1-isopropyl-4-oxo-1,4,5,6-tetrahydro-pyrrolo[3,4-b]pyrrol-2-yl]-4-methoxy-N-methyl-benzamide], for which the figures for the pIC50 in assay [1], in assay [2] and in assay [3] were 9.22, 6.29 and 9.92, respectively.

Regarding `COc1ncc(-c2cc3c(n2C(C)C)[C@H](c2ccc(Cl)cc2)N(c2cc(Cl)c(=O)n(C)c2)C3=O)c(OC)n1` [Example 121, (S)-5-(5-Chloro-1-methyl-6-oxo-1,6-dihydro-pyridin-3-yl)-6-(4-chloro-phenyl)-2-(2,4-dimethoxy-pyrimidin-5-yl)-1-isopropyl-5,6-dihydro-1H-pyrrolo[3,4-b]pyrrol-4-one], the pIC50 is 9.22 in assay [1], 5.98 in assay [2] and 10.06 in assay [3].

On to `COc1nc(N)ncc1-c1cc2c(n1C(C)C)C(c1ccc(Cl)cc1)N([C@H]1CC[C@H](O)CC1)C2=O` (stereo partly drawn) [Example 68, 2-(2-Amino-4-methoxy-pyrimidin-5-yl)-6-(4-chloro-phenyl)-5-(trans-4-hydroxy-cyclohexyl)-1-isopropyl-5,6-dihydro-1H-pyrrolo[3,4-b]pyrrol-4-one], for which the pIC50 is 7.90 in assay [1], 5.10 in assay [2] and 7.85 in assay [3].

With `COc1ccc(F)cc1-c1cc2c(n1C(C)C)C(c1ccc(Cl)cc1C)N(c1cccc(Cl)c1F)C2=O` (centres unmarked) [Example 3, 5-(3-Chloro-2-fluoro-phenyl)-6-(4-chloro-2-methyl-phenyl)-2-(5-fluoro-2-methoxy-phenyl)-1-isopropyl-5,6-dihydro-1H-pyrrolo[3,4-b]pyrrol-4-one], the pIC50 in assay [1] is 8.22; in assay [2], 4.27.

In the case of `COc1ccccc1-c1cc2c(n1C(C)C)C(c1ccc(Cl)cc1C)N(c1cccc(Cl)c1F)C2=O` (centres unmarked) [Example 1, 5-(3-Chloro-2-fluoro-phenyl)-6-(4-chloro-2-methyl-phenyl)-1-isopropyl-2-(2-methoxy-phenyl)-5,6-dihydro-1H-pyrrolo[3,4-b]pyrrol-4-one], the pIC50 in assay [1] is 8.02; in assay [2], 4.56.

For `Cc1cc(N2C(=O)c3cc(-c4ccn(C)c(=O)c4)n(C4CC4)c3C2c2ccc(Cl)cc2)cn(C)c1=O` (centres unmarked) [Example 242, 6-(4-Chlorophenyl)-1-cyclopropyl-5-(1,5-dimethyl-6-oxo-1,6-dihydropyridin-3-yl)-2-(1-methyl-2-oxo-1,2-dihydropyridin-4-yl)-5,6-dihydropyrrolo[3,4-b]pyrrol-4(1H)-one], the pIC50 in assay [1] is 5.69; in assay [2], less than 4.00.

As to `COc1ncc(-c2cc3c(n2C2CC2)C(c2ccc(Cl)cc2)N(c2cc(C)c(=O)n(C)c2)C3=O)c(OC)n1` (centres unmarked) [Example 240, 6-(4-Chlorophenyl-1)-1-cyclopropyl-2-(2,4-dimethoxypyrimidin-5-yl)-5-(1,5-dimethyl-6-oxo-1,6-dihydropyridin-3-yl)-5,6-dihydropyrrolo[3,4-b]pyrrol-4(1H)-one], the figures for the pIC50 in assay [1] and in assay [2] were 7.48 and 4.11, respectively.

Take `COc1ncc(-c2cc3c(n2C2CC2)C(c2ccc(Cl)cc2)N(c2cc(C)c(=O)n(C)c2)C3=O)cn1` (centres unmarked) [Example 241, 6-(4-Chlorophenyl)-1-cyclopropyl-5-(1,5-dimethyl-6-oxo-1,6-dihydropyridin-3-yl)-2-(2-methoxypyrimidin-5-yl)-5,6-dihydropyrrolo[3,4-b]pyrrol-4(1H)-one]: the pIC50 is 5.41 in assay [1] and less than 4.00 in assay [2].

In the case of `COc1nc(N)ncc1-c1cc2c(n1C(C)C)C(c1ccc(Cl)cc1)N(c1c[nH]c(=O)c(Cl)c1)C2=O` (centres unmarked) [Example 138, 2-(2-Amino-4-methoxy-pyrimidin-5-yl)-5-(5-chloro-6-oxo-1,6-dihydro-pyridin-3-yl)-6-(4-chloro-phenyl)-1-isopropyl-5,6-dihydro-1H-pyrrolo[3,4-b]pyrrol-4-one], in assay [3], the pIC50 was 9.47.

With `COc1nc(N(C)C)ncc1-c1cc2c(n1C(C)C)C(c1ccc(Cl)cc1)N(c1cc(Cl)ccc1C#N)C2=O` (centres unmarked) [Example 100, 4-Chloro-2-[6-(4-chloro-phenyl)-2-(2-dimethylamino-4-methoxy-pyrimidin-5-yl)-1-isopropyl-4-oxo-4,6-dihydro-1H-pyrrolo[3,4-b]pyrrol-5-yl]-benzonitrile], the pIC50 in assay [3] was 9.50.

In the case of `COc1ncc(-c2cc3c(n2C(C)C)[C@@H](c2ccc(C#N)c(F)c2)N(c2cc(Cl)c(=O)n(C)c2)C3=O)c(OC)n1` [Example 238, (R)-4-(5-(5-Chloro-1-methyl-6-oxo-1,6-dihydropyridin-3-yl)-2-(2,4-dimethoxypyrimidin-5-yl)-1-isopropyl-4-oxo-1,4,5,6-tetrahydropyrrolo[3,4-b]pyrrol-6-yl)-2-fluorobenzonitrile], in assay [3], the pIC50 is 6.90.

With `COc1cn(C)c(=O)cc1-c1cc2c(n1C(C)C)C(c1ccc(Cl)cc1)N(c1c(F)c(C)nn1C)C2=O` (centres unmarked) [Example 208, 6-(4-Chloro-phenyl)-5-(4-fluoro-2,5-dimethyl-2H-pyrazol-3-yl)-1-isopropyl-2-(5-methoxy-1-methyl-2-oxo-1,2-dihydro-pyridin-4-yl)-5,6-dihydro-1H-pyrrolo[3,4-b]pyrrol-4-one], in assay [3], the pIC50 is 9.06.

Regarding `COc1nc(N(C)C)ncc1-c1cc2c(n1C(C)C)C(c1ccc(Cl)c(F)c1)N(c1cc(Cl)cn(C)c1=O)C2=O` (centres unmarked) [Example 197, 6-(4-Chloro-3-fluoro-phenyl)-5-(5-chloro-1-methyl-2-oxo-1,2-dihydro-pyridin-3-yl)-2-(2-dimethylamino-4-methoxy-pyrimidin-5-yl)-1-isopropyl-5,6-dihydro-1H-pyrrolo[3,4-b]pyrrol-4-one], the pIC50 in assay [3] was 9.45.

For `COc1ncc(-c2cc3c(n2C(C)C)C(c2ccc(C#N)cc2)N(c2cc(Cl)ccc2C)C3=O)c(OC)n1` (centres unmarked) [Example 44, 4-[5-(5-Chloro-2-methyl-phenyl)-2-(2,4-dimethoxy-pyrimidin-5-yl)-1-isopropyl-4-oxo-1,4,5,6-tetrahydro-pyrrolo[3,4-b]pyrrol-6-yl]-benzonitrile], the pIC50 in assay [3] was 9.78.

As to `CNC(=O)c1ccc(OC)c(-c2cc3c(n2C(C)C)C(c2ccc(Cl)cc2)N(c2cc(Cl)c(=O)n(C)c2)C3=O)c1` (centres unmarked) [Example 49, 3-[5-(5-Chloro-1-methyl-6-oxo-1,6-dihydro-pyridin-3-yl)-6-(4-chloro-phenyl)-1-isopropyl-4-oxo-1,4,5,6-tetrahydro-pyrrolo[3,4-b]pyrrol-2-yl]-4-methoxy-N-methyl-benzamide], the pIC50 in assay [3] is 9.86.

`COc1nc(N)ncc1-c1cc2c(n1C(C)C)C(c1ccc(C#N)cc1)N(c1cc(Cl)cn(C)c1=O)C2=O` (centres unmarked) [Example 129, 4-[2-(2-Amino-4-methoxy-pyrimidin-5-yl)-5-(5-chloro-1-methyl-2-oxo-1,2-dihydro-pyridin-3-yl)-1-isopropyl-4-oxo-1,4,5,6-tetrahydro-pyrrolo[3,4-b]pyrrol-6-yl]-benzonitrile]: the pIC50 in assay [3] was 8.25.

As for `COc1cccnc1-c1cc2c(n1C(C)C)C(c1ccc(Cl)cc1)N(c1cc(Cl)ccc1C)C2=O` (centres unmarked) [Example 113, 5-(5-Chloro-2-methyl-phenyl)-6-(4-chloro-phenyl)-1-isopropyl-2-(3-methoxy-pyridin-2-yl)-5,6-dihydro-1H-pyrrolo[3,4-b]pyrrol-4-one], the pIC50 in assay [3] was 9.67.

For `COc1ncc(-c2cc3c(n2C(C)C)C(c2ccc(C#N)cc2)N(c2cc(C)nn2C)C3=O)c(OC)n1` (centres unmarked) [Example 179, 4-[2-(2,4-Dimethoxy-pyrimidin-5-yl)-5-(2,5-dimethyl-2H-pyrazol-3-yl)-1-isopropyl-4-oxo-1,4,5,6-tetrahydro-pyrrolo[3,4-b]pyrrol-6-yl]-benzonitrile], the pIC50 in assay [3] was 8.46.
